Measurements reported in PMC8799717, “Pharmacological targeting PIKfyve and tubulin as an effective treatment strategy for double-hit lymphoma” (Cell Death Discovery, 2022).

Tests used:
Experiment in all cases: biochemical
Design in all cases: KINOMEscan active-site-directed competition binding panel, 468 kinases, percent of DMSO control at 1 uM
Settings in all cases: KINOMEscan binding, percent of DMSO control; read-out: Ctrl%
PKMYT1 = PKMYT1 (Homo sapiens, UniProt Q99640)
ASK2 = biological target: T1, ASK2 (Homo sapiens, UniProt O95382)
T1 construct: gene MAP3K6

WNK1 = WNK1 (Homo sapiens, UniProt Q9H4A3)
PYK2 = biological target: T2, PYK2 (Homo sapiens, UniProt Q14289)
T2 construct: gene PTK2B

PIK3CA(H1047L) = PIK3CA(H1047L) (Homo sapiens, UniProt P42336, H1047L)
YSK1 = biological target: T3, YSK1 (Homo sapiens, UniProt O00506)
T3 construct: gene STK25

FRK = FRK (Homo sapiens, UniProt P42685)
Chain of FRK (P42685 whole entry): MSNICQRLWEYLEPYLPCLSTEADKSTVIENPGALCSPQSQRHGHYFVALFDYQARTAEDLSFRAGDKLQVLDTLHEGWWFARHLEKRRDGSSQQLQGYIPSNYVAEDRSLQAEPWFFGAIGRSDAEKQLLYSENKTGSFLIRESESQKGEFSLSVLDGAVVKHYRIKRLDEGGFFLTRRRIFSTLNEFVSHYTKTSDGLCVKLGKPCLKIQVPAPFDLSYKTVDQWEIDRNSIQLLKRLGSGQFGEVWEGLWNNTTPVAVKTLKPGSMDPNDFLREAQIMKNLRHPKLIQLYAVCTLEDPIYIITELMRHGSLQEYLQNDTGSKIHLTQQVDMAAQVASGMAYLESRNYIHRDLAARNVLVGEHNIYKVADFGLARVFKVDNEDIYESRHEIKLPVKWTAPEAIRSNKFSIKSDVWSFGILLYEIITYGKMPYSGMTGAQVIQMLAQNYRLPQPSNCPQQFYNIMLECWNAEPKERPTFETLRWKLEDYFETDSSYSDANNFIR

PKAC-beta = biological target: T4, PKAC-beta (Homo sapiens, UniProt P22694)
T4 construct: gene PRKACB

HIPK2 = HIPK2 (Homo sapiens, UniProt Q9H2X6)
PAK6 = PAK6 (Homo sapiens, UniProt Q9NQU5)
PHKG1 = PHKG1 (Homo sapiens, UniProt Q16816)
SNARK = biological target: T5, SNARK (Homo sapiens, UniProt Q9H093)
T5 construct: gene NUAK2
T5 sequence (Q9H093 whole entry): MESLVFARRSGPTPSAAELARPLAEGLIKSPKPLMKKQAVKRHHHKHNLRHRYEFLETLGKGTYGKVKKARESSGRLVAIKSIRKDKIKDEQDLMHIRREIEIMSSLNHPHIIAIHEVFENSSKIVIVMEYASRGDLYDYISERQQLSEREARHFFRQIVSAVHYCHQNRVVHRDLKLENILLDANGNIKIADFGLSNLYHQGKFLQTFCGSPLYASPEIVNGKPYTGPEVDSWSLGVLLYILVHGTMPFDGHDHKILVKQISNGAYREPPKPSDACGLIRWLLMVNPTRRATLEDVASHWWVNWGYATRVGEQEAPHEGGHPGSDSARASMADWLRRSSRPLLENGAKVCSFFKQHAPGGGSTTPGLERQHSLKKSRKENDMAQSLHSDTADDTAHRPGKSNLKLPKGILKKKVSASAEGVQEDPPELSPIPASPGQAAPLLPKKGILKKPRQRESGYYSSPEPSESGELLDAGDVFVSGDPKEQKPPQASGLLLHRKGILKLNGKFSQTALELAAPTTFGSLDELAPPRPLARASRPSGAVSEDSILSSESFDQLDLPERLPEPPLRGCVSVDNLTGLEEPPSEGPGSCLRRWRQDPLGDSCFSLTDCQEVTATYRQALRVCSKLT

STK36 = STK36 (Homo sapiens, UniProt Q9NRP7)
PIK3CD = PIK3CD (Homo sapiens, UniProt O00329)
EGFR(L858R,T790M) = EGFR(L858R,T790M) (Homo sapiens, UniProt P00533, L858R/T790M)
TAK1 = biological target: T6, TAK1 (Homo sapiens, UniProt O43318)
T6 construct: gene MAP3K7
T6 sequence (O43318 whole entry): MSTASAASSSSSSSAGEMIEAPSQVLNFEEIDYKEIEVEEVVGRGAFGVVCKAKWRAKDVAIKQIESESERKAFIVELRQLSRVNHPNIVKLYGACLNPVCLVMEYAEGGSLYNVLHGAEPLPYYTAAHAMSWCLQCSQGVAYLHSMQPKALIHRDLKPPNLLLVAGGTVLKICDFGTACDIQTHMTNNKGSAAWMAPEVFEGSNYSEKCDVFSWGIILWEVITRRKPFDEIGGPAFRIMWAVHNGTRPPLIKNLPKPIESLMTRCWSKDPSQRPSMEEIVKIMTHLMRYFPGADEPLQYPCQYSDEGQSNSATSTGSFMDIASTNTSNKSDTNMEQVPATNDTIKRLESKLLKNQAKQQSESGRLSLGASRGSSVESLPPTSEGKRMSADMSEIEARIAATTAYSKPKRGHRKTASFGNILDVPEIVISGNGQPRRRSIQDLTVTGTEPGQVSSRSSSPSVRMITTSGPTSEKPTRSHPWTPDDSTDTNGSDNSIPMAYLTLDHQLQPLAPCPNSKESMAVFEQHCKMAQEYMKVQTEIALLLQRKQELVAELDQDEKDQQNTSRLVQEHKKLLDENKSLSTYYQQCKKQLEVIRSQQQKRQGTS

EPHB1 = EPHB1 (Homo sapiens, UniProt P54762)
MARK3 = MARK3 (Homo sapiens, UniProt P27448)
MAPKAPK2 = MAPKAPK2 (Homo sapiens, UniProt P49137)
PIK3CB = PIK3CB (Homo sapiens, UniProt P42338)
Chain of PIK3CB (P42338 whole entry): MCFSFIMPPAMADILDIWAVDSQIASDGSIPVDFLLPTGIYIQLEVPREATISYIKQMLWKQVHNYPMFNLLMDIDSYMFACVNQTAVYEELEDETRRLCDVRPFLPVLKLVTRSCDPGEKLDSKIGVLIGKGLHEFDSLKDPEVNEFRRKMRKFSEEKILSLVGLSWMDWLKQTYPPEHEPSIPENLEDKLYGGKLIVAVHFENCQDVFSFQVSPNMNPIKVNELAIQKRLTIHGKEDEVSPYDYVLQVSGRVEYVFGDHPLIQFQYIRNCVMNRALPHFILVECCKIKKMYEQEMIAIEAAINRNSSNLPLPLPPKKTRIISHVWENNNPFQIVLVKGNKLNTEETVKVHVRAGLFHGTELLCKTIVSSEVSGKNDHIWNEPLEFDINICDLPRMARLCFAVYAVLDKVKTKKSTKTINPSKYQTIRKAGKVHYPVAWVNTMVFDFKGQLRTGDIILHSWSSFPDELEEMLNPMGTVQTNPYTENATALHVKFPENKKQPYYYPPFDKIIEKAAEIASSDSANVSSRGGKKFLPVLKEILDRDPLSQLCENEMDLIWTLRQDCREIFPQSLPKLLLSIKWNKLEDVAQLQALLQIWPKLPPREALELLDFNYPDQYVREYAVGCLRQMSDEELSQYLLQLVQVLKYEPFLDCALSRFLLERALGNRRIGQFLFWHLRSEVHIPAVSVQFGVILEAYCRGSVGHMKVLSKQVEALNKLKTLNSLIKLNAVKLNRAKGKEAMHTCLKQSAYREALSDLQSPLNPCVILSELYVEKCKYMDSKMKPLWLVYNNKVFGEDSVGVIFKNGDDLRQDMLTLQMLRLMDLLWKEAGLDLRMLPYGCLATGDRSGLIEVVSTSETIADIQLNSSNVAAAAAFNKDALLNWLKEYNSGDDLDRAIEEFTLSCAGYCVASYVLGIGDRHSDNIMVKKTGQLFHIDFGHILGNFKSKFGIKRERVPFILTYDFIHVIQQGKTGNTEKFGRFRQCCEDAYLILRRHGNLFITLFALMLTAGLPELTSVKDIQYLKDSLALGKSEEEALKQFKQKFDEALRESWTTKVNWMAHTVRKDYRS

DCAMKL2 = biological target: T7, DCAMKL2 (Homo sapiens, UniProt Q8N568)
T7 construct: gene DCLK2

PRKD3 = PRKD3 (Homo sapiens, UniProt O94806)
Chain of PRKD3 (O94806 whole entry): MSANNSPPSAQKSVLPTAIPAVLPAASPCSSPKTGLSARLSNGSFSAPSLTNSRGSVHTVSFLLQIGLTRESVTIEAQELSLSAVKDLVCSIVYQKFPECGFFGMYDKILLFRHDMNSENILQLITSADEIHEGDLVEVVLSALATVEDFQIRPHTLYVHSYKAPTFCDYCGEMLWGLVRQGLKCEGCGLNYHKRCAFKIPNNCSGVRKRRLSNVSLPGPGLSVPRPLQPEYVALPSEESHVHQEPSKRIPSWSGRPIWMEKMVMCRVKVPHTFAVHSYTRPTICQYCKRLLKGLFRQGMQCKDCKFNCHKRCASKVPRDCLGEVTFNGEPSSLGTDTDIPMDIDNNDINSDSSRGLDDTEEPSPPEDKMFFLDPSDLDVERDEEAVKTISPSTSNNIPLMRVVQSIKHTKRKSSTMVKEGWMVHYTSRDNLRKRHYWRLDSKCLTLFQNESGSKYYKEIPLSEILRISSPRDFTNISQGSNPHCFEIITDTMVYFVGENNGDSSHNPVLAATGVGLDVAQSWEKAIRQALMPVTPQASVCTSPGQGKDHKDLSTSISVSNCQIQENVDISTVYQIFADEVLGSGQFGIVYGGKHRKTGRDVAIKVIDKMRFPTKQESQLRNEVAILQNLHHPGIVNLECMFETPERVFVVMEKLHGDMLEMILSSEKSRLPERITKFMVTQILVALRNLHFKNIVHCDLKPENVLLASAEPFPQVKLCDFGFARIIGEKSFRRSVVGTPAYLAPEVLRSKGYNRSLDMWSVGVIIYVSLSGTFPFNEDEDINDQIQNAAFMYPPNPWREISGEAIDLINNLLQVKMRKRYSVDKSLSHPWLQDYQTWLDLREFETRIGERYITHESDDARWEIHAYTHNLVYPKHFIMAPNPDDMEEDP

FLT1 = FLT1 (Homo sapiens, UniProt P17948)
Chain of FLT1 (P17948 whole entry): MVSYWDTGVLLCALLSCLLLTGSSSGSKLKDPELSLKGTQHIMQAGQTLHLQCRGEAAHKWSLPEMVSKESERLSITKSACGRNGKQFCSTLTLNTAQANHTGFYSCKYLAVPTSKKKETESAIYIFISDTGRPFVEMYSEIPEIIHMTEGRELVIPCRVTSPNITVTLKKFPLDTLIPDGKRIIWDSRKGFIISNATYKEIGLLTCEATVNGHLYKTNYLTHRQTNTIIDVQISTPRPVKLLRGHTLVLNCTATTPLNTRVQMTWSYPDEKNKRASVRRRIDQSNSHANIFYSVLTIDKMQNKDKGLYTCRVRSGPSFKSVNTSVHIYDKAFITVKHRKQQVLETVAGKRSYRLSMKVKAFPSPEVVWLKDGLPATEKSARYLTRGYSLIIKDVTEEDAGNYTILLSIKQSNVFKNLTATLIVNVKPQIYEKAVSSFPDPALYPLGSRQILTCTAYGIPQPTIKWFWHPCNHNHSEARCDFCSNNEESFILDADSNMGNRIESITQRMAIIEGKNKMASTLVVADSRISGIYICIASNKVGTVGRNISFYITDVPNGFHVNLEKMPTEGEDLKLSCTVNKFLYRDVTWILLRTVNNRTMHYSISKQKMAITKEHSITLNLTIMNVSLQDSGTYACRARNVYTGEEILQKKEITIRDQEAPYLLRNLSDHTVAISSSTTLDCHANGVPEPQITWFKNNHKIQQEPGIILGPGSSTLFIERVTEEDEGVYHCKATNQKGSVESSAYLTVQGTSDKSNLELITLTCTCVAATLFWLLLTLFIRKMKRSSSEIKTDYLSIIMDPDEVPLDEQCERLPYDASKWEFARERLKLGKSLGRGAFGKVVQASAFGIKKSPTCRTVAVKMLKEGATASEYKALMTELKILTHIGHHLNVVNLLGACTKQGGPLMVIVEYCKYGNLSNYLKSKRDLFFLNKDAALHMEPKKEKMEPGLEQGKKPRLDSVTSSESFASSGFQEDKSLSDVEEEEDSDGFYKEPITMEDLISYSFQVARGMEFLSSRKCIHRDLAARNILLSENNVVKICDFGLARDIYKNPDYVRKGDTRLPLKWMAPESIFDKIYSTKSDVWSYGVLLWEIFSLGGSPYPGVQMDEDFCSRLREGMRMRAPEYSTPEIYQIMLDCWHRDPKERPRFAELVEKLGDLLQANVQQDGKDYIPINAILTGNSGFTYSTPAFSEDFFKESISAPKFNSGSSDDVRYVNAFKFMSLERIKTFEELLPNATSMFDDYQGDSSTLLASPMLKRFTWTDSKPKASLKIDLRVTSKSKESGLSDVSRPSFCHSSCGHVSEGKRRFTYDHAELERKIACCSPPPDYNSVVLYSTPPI

p38-delta = biological target: T8, p38-delta (Homo sapiens, UniProt O15264)
T8 construct: gene MAPK13

Cc1ccc(NC(=O)c2cccc(C(F)(F)F)c2)cc1Nc1cc(-c2cccnc2)nc2[nH]ccc12 [HZX-02-059]
remaining binding at 1 µM (PKMYT1): 96%
remaining binding at 1 µM (ASK2): 66%
remaining binding at 1 µM (WNK1): 98%
remaining binding at 1 µM (PYK2): 100%
remaining binding at 1 µM (PIK3CA(H1047L)): 56%
remaining binding at 1 µM (YSK1): 94%
remaining binding at 1 µM (FRK): 4.7%
remaining binding at 1 µM (PKAC-beta): 95%
remaining binding at 1 µM (HIPK2): 100%
remaining binding at 1 µM (PAK6): 100%
remaining binding at 1 µM (PHKG1): 97%
remaining binding at 1 µM (SNARK): 99%
remaining binding at 1 µM (STK36): 89%
remaining binding at 1 µM (PIK3CD): 97%
remaining binding at 1 µM (EGFR(L858R,T790M)): 79%
remaining binding at 1 µM (TAK1): 73%
remaining binding at 1 µM (EPHB1): 39%
remaining binding at 1 µM (MARK3): 92%
remaining binding at 1 µM (MAPKAPK2): 80%
remaining binding at 1 µM (PIK3CB): 74%
remaining binding at 1 µM (DCAMKL2): 96%
remaining binding at 1 µM (PRKD3): 100%
remaining binding at 1 µM (FLT1): 96%
remaining binding at 1 µM (p38-delta): 87%
